Where a name gives a salt, the structure may show the parent alone.

T1 sequence (P09874 whole entry): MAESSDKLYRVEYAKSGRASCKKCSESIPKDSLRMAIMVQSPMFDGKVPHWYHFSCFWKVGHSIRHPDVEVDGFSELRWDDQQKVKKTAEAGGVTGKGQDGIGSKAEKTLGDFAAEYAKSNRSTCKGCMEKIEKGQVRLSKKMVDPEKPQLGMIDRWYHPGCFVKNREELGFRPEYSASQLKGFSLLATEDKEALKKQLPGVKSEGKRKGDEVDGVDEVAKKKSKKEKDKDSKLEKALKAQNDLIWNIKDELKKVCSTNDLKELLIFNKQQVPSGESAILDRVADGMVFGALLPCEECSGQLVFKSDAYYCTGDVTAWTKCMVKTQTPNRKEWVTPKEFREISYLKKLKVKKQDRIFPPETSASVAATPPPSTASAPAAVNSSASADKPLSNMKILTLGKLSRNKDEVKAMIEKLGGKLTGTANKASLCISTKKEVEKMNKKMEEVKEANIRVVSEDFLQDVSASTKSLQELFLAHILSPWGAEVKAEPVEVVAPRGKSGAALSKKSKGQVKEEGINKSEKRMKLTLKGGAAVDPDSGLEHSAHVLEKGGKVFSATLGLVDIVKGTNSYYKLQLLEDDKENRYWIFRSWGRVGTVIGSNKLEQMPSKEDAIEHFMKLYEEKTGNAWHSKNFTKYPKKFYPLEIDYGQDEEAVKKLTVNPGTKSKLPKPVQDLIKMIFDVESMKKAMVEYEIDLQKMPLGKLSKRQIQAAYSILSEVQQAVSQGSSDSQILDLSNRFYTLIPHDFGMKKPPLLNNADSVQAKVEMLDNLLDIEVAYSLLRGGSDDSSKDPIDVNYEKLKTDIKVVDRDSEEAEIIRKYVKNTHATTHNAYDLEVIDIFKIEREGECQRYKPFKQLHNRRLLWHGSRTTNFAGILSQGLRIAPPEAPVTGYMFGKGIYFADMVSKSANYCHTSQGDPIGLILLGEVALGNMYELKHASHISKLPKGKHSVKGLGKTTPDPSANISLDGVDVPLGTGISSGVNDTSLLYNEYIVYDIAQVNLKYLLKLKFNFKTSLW

The first data set has as its target T1, recombinant human PARP (Homo sapiens, UniProt P09874).
T1 construct: purchased Trevigen, Inc. (USA)
The data set can be described thus: PARP inhibitory activity ([3H]NAD incorporation, filter assay). Type of data set: biochemical. Conditions: recombinant human PARP 2 units/ml, 0.3 μM [3H]NAD, DNA 3 μg/ml, room temperature 1.5 hour, duplicate; read-out: IC50 (inhibitory rate of PARP activity). As to the method: PARP (recombinant human PARP, 660 units/mg) (Trevigen, Inc. (USA))
A buffer (50 mM Tris-HCl (pH8.0)/25 mM MgCl2 aqueous solution) was used in preparation of each solution.
To a 96-well round bottom plate made of polypropylene were added successively a test compound solution (20 μl/well), 1 μM [^3H]NAD (specific activity: 7 kBq/ml) containing 10 μg/ml of DNA (30 μl/well), and 4 units/ml (6 μg/ml) PARP solution (50 μl/well), and the plate was placed under room temperature for 1.5 hour for the reaction (final concentrations of each reagent in the reaction solution: DNA: 3 μg/ml; [^3H]NAD: 0.3 μM/specific activity of 2.1 kBq/ml; PARP: 2 units/ml (3 μg/ml)). The reaction was terminated by addition of a 24 mM benzamide (9 μl/well, 2 mM after the addition), and the PARP in the reaction solution was recovered by using a cell harvester (HARVESTER 96 (registered trade name), TOMTEC Inc. (USA)) on the glass fiber filter for plate. Said glass fiber filter had been soaked with 80% ethanol just prior to the recovary of PARP, and after the recovary of PARP, each well of the plate was washed four times with 80% ethanol, and the washings were also passed through the glass fiber filter. Said glass fiber filter was dried by heating with a microwave oven for 3 to 4 minutes, and put into a sample bag being sandwiched between 2 solid scintillant sheets, and said sample bag was sealed by heat sealing. The bag was put on a heater at about 50° C. to melt the scintillant with heat in order to penetrate it into the filter. The plate was cooled to room temperature, and the [^3H] count of poly(ADP-ribose) (cpm) bound to PARP was measured with a counter for plate (1450 MicroBeta (registered trade name) TriLux, PerkinElmer, Inc. (USA)) for 10 minutes per plate.
The inhibitory rate of PARP activity was calculated by the following equation. [formula]
The inhibitory rate of each test compound was measured in duplicate, and an IC50 value thereof was calculated therefrom.
For the molecule `O=c1[nH]c(=O)n2c3c(cccc13)CC2` [Example 1, 5,6-dihydro-1H-pyrrolo[3,2,1-ij]quinazoline-1,3(2H)-dione], the IC50 was 140 nM. The same measure, in the same setting: next, `O=c1[nH]c(=O)n2c3c(cccc13)CCC2` [Example 2, 6,7-Dihydro-1H,5H-pyrido[3,2,1-ij]quinazoline-1,3(2H)-dione]: 52 nM; `CN(C)c1ccc(C(=O)NCC2Cc3cccc4c(=O)[nH]c(=O)n(c34)C2)cc1` (centres unmarked) [Example 29, 4-(Dimethylamino)-N-[(1,3-dioxo-2,3,6,7-tetrahydro-1H,5H-pyrido[3,2,1-ij]quinazolin-6-yl)methyl]benzamide]: < 5 nM; `O=C(NCC1Cc2cccc3c(=O)[nH]c(=O)n(c23)C1)C1CCNCC1` (centres unmarked) [Example 39, N-[(1,3-Dioxo-2,3,6,7-tetrahydro-1H,5H-pyrido[3,2,1-ij]quinazolin-6-yl)methyl]-4-piperidinecarboxamide hydrochloride]: 7.4 nM.

Test system in the next data set: not given
Assay: not given
Settings: not given
Consider `CN1CCC(C(=O)NCC2Cc3cccc4c(=O)[nH]c(=O)n(c34)C2)CC1` (centres unmarked) [Example 34, N-[(1,3-Dioxo-2,3,6,7-tetrahydro-1H,5H-pyrido[3,2,1-ij]quinazolin-6-yl)methyl]-1-methyl-4-piperidinecarboxamide], for which the melting point was 246 to 250 °C (dec.). Consider `O=C(NCC1Cc2cccc3c(=O)[nH]c(=O)n(c23)C1)c1ccnnc1` (centres unmarked) [Example 32, N-[(1,3-Dioxo-2,3,6,7-tetrahydro-1H,5H-pyrido[3,2,1-ij]quinazolin-6-yl)methyl]-4-pyridazinecarboxamide], for which the melting point is 279 to 281 °C (dec.).

On to `O=C(NCC1Cc2cccc3c(=O)[nH]c(=O)n(c23)C1)C1CCCCC1` (centres unmarked) [Example 30, N-[(1,3-Dioxo-2,3,6,7-tetrahydro-1H,5H-pyrido[3,2,1-ij]quinazolin-6-yl)methyl]cyclohexanecarboxamide], for which the melting point is 280 to 281 °C (dec.).

Turning to `O=C(NCC1Cc2cccc3c(=O)[nH]c(=O)n(c23)C1)c1cnccn1` (centres unmarked) [Example 31, N-[(1,3-Dioxo-2,3,6,7-tetrahydro-1H,5H-pyrido[3,2,1-ij]quinazolin-6-yl)methyl]-2-pyrazinecarboxamide], the melting point is 255 to 257 °C (dec.). Take `O=c1[nH]c(=O)n2c3c(cccc13)CC2CO` (centres unmarked) [Example 4, 5-(Hydroxymethyl)-5,6-dihydro-1H-pyrrolo[3,2,1-ij]quinazoline-1,3(2H)-dione]: the melting point was in the range of 238 to 240 °C. Still for that read-out and setting: as for `Cl.NCC1CCc2cccc3c(=O)[nH]c(=O)n1c23` (centres unmarked), the figure is > 300 °C. Molecule `CN(C)c1ccccc1C(=O)NCC1Cc2cccc3c(=O)[nH]c(=O)n(c23)C1` (centres unmarked) [Example 27, 2-(Dimethylamino)-N-[(1,3-dioxo-2,3,6,7-tetrahydro-1H,5H-pyrido[3,2,1-ij]quinazolin-6-yl)methyl]benzamide] displayed a melting point of 220 to 236 °C. The same measure, in the same setting: next, `O=C(NCC1Cc2cccc3c(=O)[nH]c(=O)n(c23)C1)C1CCN(Cc2ccccc2)CC1` (centres unmarked) [Example 35, 1-Benzyl-N-[(1,3-dioxo-2,3,6,7-tetrahydro-1H,5H-pyrido[3,2,1-ij]-quinazolin-6-yl)methyl]-4-piperidinecarboxamide]: 240 to 242 °C (dec.).

Molecule `O=c1[nH]c(=O)n2c3c(cccc13)CCC2CO` (centres unmarked) [Example 3, 5-(hydroxymethyl)-6,7-dihydro-1H,5H-pyrido[3,2,1-ij]-quinazoline-1,3(2H)-dione] had a melting point of 205 to 207 °C. With `Cl.NC1Cc2cccc3c(=O)[nH]c(=O)n(c23)C1` (centres unmarked), the melting point is > 300 °C.

On to `Cl.NCC1CCn2c(=O)[nH]c(=O)c3cccc1c32` (centres unmarked), for which the melting point was 190 °C (dec.). On the same count and under the same terms, next, `CN(C)Cc1ccc(C(=O)NCC2Cc3cccc4c(=O)[nH]c(=O)n(c34)C2)cc1` (centres unmarked) [Example 33, 4-[(Dimethylamino)methyl]-N-[(1,3-dioxo-2,3,6,7-tetrahydro-1H,5H-pyrido[3,2,1-ij]quinazolin-6-yl)methyl]benzamide]: 240 to 243 °C (dec.); `O=c1[nH]c(=O)n2c3c(cccc13)CC2` [Example 1, 5,6-dihydro-1H-pyrrolo[3,2,1-ij]quinazoline-1,3(2H)-dione]: 314 to 315 °C. On the same count and under the same terms, next, `O=c1[nH]c(=O)n2c3c(cccc13)CCC2` [Example 2, 6,7-Dihydro-1H,5H-pyrido[3,2,1-ij]quinazoline-1,3(2H)-dione]: 282 to 284 °C; `Cl.NCc1ccc(C(=O)NCC2Cc3cccc4c(=O)[nH]c(=O)n(c34)C2)cc1` (centres unmarked): > 300 °C; `O=c1[nH]c(=O)n2c3c(cccc13)CCCC2` [Example 48, 5,6,7,8-Tetrahydro-1H-azepino[3,2,1-ij]quinazoline-1,3(2H)-dione]: 192 to 196 °C. Still for that read-out and setting: as for `O=c1[nH]c(=O)n2c3c(cccc13)CC(CBr)C2` (centres unmarked) [Example 9, 6-(Bromomethyl)-6,7-dihydro-1H,5H-pyrido[3,2,1-ij]quinazoline-1,3(2H)-dione], the figure is 267 to 270 °C (dec.). On to `O=c1[nH]c(=O)n2c3c(cccc13)C(O)C2` (centres unmarked) [Example 46, 6-hydroxy-5,6-dihydro-1H-pyrrolo[3,2,1-ij]quinazoline-1,3(2H)-dione], for which the melting point is 260 to 266 °C (dec.). On the same count and under the same terms, next, `O=c1[nH]c(=O)n2c3c(cccc13)CC(CO)C2` (centres unmarked) [Example 5, 6-(Hydroxymethyl)-6,7-dihydro-1H,5H-pyrido[3,2,1-ij]quinazoline-1,3(2H)-dione]: 252 to 254 °C.

On to `Cl.NCCC(=O)NCC1Cc2cccc3c(=O)[nH]c(=O)n1c23` (centres unmarked), for which the melting point was 290 to 296 °C (dec.). Still for that read-out and setting: as for `Cl.NCC1Cc2cccc3c(=O)[nH]c(=O)n1c23` (centres unmarked), the figure is > 300 °C; as for `CN(C)c1ccc(C(=O)NCC2Cc3cccc4c(=O)[nH]c(=O)n(c34)C2)cc1` (centres unmarked) [Example 29, 4-(Dimethylamino)-N-[(1,3-dioxo-2,3,6,7-tetrahydro-1H,5H-pyrido[3,2,1-ij]quinazolin-6-yl)methyl]benzamide], 268 to 278 °C (dec.); as for `O=C(NCC1Cc2cccc3c(=O)[nH]c(=O)n(c23)C1)c1ccccn1` (centres unmarked) [Example 24, N-[(1,3-Dioxo-2,3,6,7-tetrahydro-1H,5H-pyrido[3,2,1-ij]quinazolin-6-yl)methyl]-2-pyridinecarboxamide], 247 to 250 °C. For the molecule `O=c1[nH]c(=O)n2c3c(cccc13)C(CBr)CC2` (centres unmarked) [Example 10, 7-(Bromomethyl)-6,7-dihydro-1H,5H-pyrido[3,2,1-ij]quinazoline-1,3(2H)-dione], the melting point is 225 °C (dec.). `O=C(Cc1ccccc1)NCC1Cc2cccc3c(=O)[nH]c(=O)n(c23)C1` (centres unmarked) [Example 26, N-[(1,3-Dioxo-2,3,6,7-tetrahydro-1H,5H-pyrido[3,2,1-ij]quinazolin-6-yl)methyl]-2-phenylacetamide]: the melting point is 275 °C (dec.). Still for that read-out and setting: as for `CN(C)c1cccc(C(=O)NCC2Cc3cccc4c(=O)[nH]c(=O)n(c34)C2)c1` (centres unmarked) [Example 28, 3-(Dimethylamino)-N-[(1,3-dioxo-2,3,6,7-tetrahydro-1H,5H-pyrido[3,2,1-ij]quinazolin-6-yl)methyl]benzamide], the figure is 158 to 170 °C; as for `O=C(NCC1Cc2cccc3c(=O)[nH]c(=O)n(c23)C1)c1ccncc1` (centres unmarked) [Example 23, N-[(1,3-Dioxo-2,3,6,7-tetrahydro-1H,5H-pyrido[3,2,1-ij]quinazolin-6-yl)methyl]isonicotinamide], 282 to 285 °C. On the same count and under the same terms, next, `O=c1[nH]c(=O)n2c3c(cccc13)C(CO)CC2` (centres unmarked) [Example 6, 7-(Hydroxymethyl)-6,7-dihydro-1H,5H-pyrido[3,2,1-ij]quinazoline-1,3(2H)-dione]: 226 °C (dec.).
